Measured values published in patent publication US10760087B2, “Compositions, methods, and plant genes for the improved production of fermentable sugars for biofuel production” (priority 2012, dated 2020).
Like-named read-outs stand apart in the source and are kept apart here.

Tests used:
Format in all cases: in vivo
[1] = tested on: Arabidopsis wild-type and CesA1/CesA3/CesA6 mutant alleles; assay: Root length of Arabidopsis wild-type and CESA mutant lines on cellulose biosynthetic inhibitors (CBI resistance); settings: Arabidopsis thaliana
Description: Further genetic screens aimed at identifying resistance to cellulose biosynthetic inhibitors (CBIs) were also conducted. The aim of conducting resistance screens can be to identify potential inhibitor targets. In the case of some CBIs, like isoxaben, resistance screens have been carried out using high concentrations of the inhibitor with the aim of identifying the target protein. Indeed, high resistance to isoxaben is only possible if certain CELLULOSE SYNTHASE (CESA) genes are altered by mutation. An unforeseen consequence of some of the resistance alleles has been to reduce overall cellulose crystallinity, which ultimately leads to overall improved saccharification of starting cell wall material. With this information as a starting point, the inventors sought to identify novel CESA alleles by conducting additional resistance screens, but utilizing much lower CBI concentrations than in the original screens.
EMS mutagenized plants (M2) were screened on 20 nM of two different CBIs, isoxaben or flupoxam. […] In total, 2 million M2 seeds were screened and 12 new CESA alleles were isolated, 3 in CESA1, 8 in CESA3 and 1 in CESA6. All of the new mutant alleles led to single amino acid substitutions, which could not have been predicted a priori.

[2] = tested on: wild type Arabidopsis seedlings; assay: Sugar release by 0.2 M H2SO4 acid hydrolysis of NPA-treated Arabidopsis seedlings; settings: wild type (Col-0) 28 day-old seedlings on MS media with 1 or 5 μM NPA
Excerpt: FIGS. 4A-4D illustrate the analysis of pin-shaped inflorescence mutants and NPA treatment, resulting in increased saccharification in Arabidopsis and maize. […] (Results are averages ±s.d. (n=4). *, P<0.001 and **, P<0.005 using Student's t-test; all experiments were repeated two times with similar results.)
(§1) The connection between auxin transport and increased sugar release was further probed using a specific inhibitor of auxin transport N-1-naphthylphthalamic acid (NPA). […] More importantly, the ability to chemically perturb auxin transport allowed the expansion of the analysis to Zea mays (maize). […] Moreover, it appears that genes and processes identified using Arabidopsis can be transferred to maize and potentially other monocot species dedicated to biofuel production.
The M2 generation of EMS-mutagenized Arabidopsis (Col-0) seeds were chilled for 4 days and sowed onto 0.5× MS plates placed vertically under continuous light conditions at room temperature. […] The samples were incubated at 100° C. for 5 minutes, cooled and the absorbance was read at 660 nm. Approximately 22,000 seedlings from 32 pools were screened from which 63 wall hydrolysis sensitive (whs) mutants were identified as having an absorbance reading greater than 2 standard deviations from wild type (FIG. 5). whs mutants were retested in the M3 generation.

[3] = tested on: Zea mays (maize); assay: Sugar release by 0.2 M H2SO4 acid hydrolysis of NPA-treated maize; settings: two maize cultivars, 120 μM NPA for 2 weeks
Excerpt: (Results are averages ±s.d. (n=6-9).)
as §1
Polar auxin transport inhibition was carried out as described by Wu & McSteen, 2007. The two maize cultivars, Syngenta hybrid N39-Q1 and Tuxedo Sweet Corn, were grown in a greenhouse at 24° C. with a 12 hour day/night cycle. The plants were grown four weeks before NPA treatment followed by a two week watering regime using 120 μM NPA (ChemService, West Chester, Pa., USA) or DMSO alone (solvent) applied every two days in a volume of 150 mL for each pot. Plants were fertilized once a week with 20-20-20 fertilizer. After 2 weeks of treatment, whole plants were collected and de-stained in chloroform:methanol (1:1 v/v). Acid hydrolysis was performed as described previously.

With `CCC(C)(CC)c1cc(NC(=O)c2c(OC)cccc2OC)on1` [Isoxaben, isoxaben] the IC50 ([1]; read-out: Concentration at which root length is 50% of wt, allele ixr1-1 (published), Col-0, CesA3 G(998)D) was greater than 1 µM, the IC50 ([1]; read-out: Concentration at which root length is 50% of wt, allele ixr1-2 (published), Col-0, CesA3 T(942)I) was 0.5 µM and the IC50 ([1]; read-out: Concentration at which root length is 50% of wt, allele ixr1-3, Ler, CesA3 G(998)S) was 0.1 µM. It also gave an IC50 ([1]; read-out: Concentration at which root length is 50% of wt, allele ixr1-4, Ler, CesA3 R(806)K) of 0.05 µM, an IC50 ([1]; read-out: Concentration at which root length is 50% of wt, allele ixr1-5, Ler, CesA3 L(797)F) of 0.01 µM and an IC50 ([1]; read-out: Concentration at which root length is 50% of wt, allele ixr1-6, Ler, CesA3 S(377)F) of 0.05 µM. The IC50 ([1]; read-out: Concentration at which root length is 50% of wt, allele ixr1-7, Ler, CesA3 R(276)H) was 0.05 µM, the IC50 ([1]; read-out: Concentration at which root length is 50% of wt, allele ixr 2-1 (published), Col-0, CesA6 R(1064)W) was 0.05 µM and the IC50 ([1]; read-out: Concentration at which root length is 50% of wt, allele ixr 2-2, Ler, CesA6 S(1002)F) was 0.01 µM.
Compound `NC(=O)c1nc(-c2ccccc2)n(-c2ccc(Cl)c(COCC(F)(F)C(F)(F)F)c2)n1` [Flupoxam, flupoxam] has an IC50 ([1]; read-out: Concentration at which root length is 50% of wt, allele fpx 1-1, Col-o, CesA3 S(1040)L) of 0.5 µM, an IC50 ([1]; read-out: Concentration at which root length is 50% of wt, allele fpx 1-2, Ler, CesA3 S(1037)F) greater than 1 µM and an IC50 ([1]; read-out: Concentration at which root length is 50% of wt, allele fpx 1-3, Ler, CesA3 S(983)F) of 0.1 µM. For the same compound, the IC50 ([1]; read-out: Concentration at which root length is 50% of wt, allele fpx2-1, Ler, CesA1 G(1013)R) was greater than 1 µM, the IC50 ([1]; read-out: Concentration at which root length is 50% of wt, allele fpx 2-2, Ler, CesA1 P(1010)L) was 0.1 to 0.5 µM and the IC50 ([1]; read-out: Concentration at which root length is 50% of wt, allele fpx 2-3, Ler, CesA1 G(1009)D) was 1 µM.
`O=C(O)c1ccccc1C(=O)Nc1cccc2ccccc12` [NPA, N-1-naphthylphthalamic acid] was tested, and the “increase in the release of sugars relative to untreated plants” value [2] was 1.5 to 2 fold and the “cell wall accessibility (sugar release)” value [3] was “significant increase in cell wall accessibility”.
